Experimental data as given in patent publication US8802597B2, “Herbicidal pyrimidines” (E I du Pont de Nemours and Company, priority 2003, dated 2014).

How the values were obtained:
[1] = tested on: Italian ryegrass (Lolium multiflorum); test: Test C postemergence; format: in vivo
How it was run: (§1)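 Applications: preemergence onto seeded soil and postemergence onto 1- to 4-leaf seedlings, compound carried in non-phytotoxic solvent plus surfactant. Kept in greenhouse 12 to 14 days. Scored visually relative to untreated controls, 0 (no effect) to 100 (complete control).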

[2] = tested on: windgrass (Apera spica-venti); test: Test C postemergence; format: in vivo
How it was run: as §1

[3] = tested on: downy brome (Bromus tectorum); test: Test C postemergence; format: in vivo
How it was run: as §1

[4] = tested on: winter barley (Hordeum vulgare); test: Test C postemergence; format: in vivo
How it was run: as §1

[5] = tested on: wheat (Triticum aestivum); test: Test C postemergence; format: in vivo
How it was run: as §1

wild oat (Avena fatua) = test: Test C postemergence; format: in vivo
How it was run: as §1

[6] = tested on: green foxtail (Setaria viridis); test: Test C postemergence; format: in vivo
How it was run: as §1

[7] = tested on: canarygrass (Phalaris minor); test: Test C postemergence; format: in vivo
How it was run: as §1

[8] = tested on: blackgrass (Alopecurus myosuroides); test: Test C postemergence; format: in vivo
How it was run: as §1

[9] = tested on: rice flatsedge (Cyperus iria); test: Test E flooded paddy water application; format: in vivo; settings: Flood, 21 days, scale 0 to 100 (0 no effect, 100 complete control)
How it was run: (§2)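 Greenhouse pots of Tama silt loam with weeds and rice at 2.0–2.5-leaf stage, flooded to 3 cm; compounds applied directly into paddy water, depth maintained. Visual rating versus untreated controls after 21 days, 0 (no effect) to 100 (complete control); 29.5/26.7 °C, 16-h photoperiod.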

[10] = tested on: purple redstem (Ammannia coccinea); test: Test E flooded paddy water application; format: in vivo; settings: Flood, 21 days, scale 0 to 100 (0 no effect, 100 complete control)
How it was run: as §2

[11] = tested on: duck salad (Heteranthera limosa); test: Test C flooded paddy test; format: in vivo; settings: Flood, scale 0 to 100
How it was run: (§3)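 Response scores reflect visual evaluation after 12 to 14 days in the greenhouse, with 0 for no effect and 100 for complete control relative to untreated plants. Treatment was made at the 2-leaf stage in a flooded paddy setting, and a dash denotes no test result.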

rice (Oryza sativa) = test: Test C flooded paddy test; format: in vivo; settings: Flood, scale 0 to 100
How it was run: as §3

[12] = tested on: umbrella sedge (Cyperus difformis); test: Test C flooded paddy test; format: in vivo; settings: Flood, scale 0 to 100
How it was run: as §3

[13] = tested on: barnyardgrass (Echinochloa crus-galli); test: Test C flooded paddy test; format: in vivo; settings: Flood
How it was run: as §3

[14] = 500 g ai/ha, scale 0 to 100 (0 no effect, 100 complete control)

Nc1nc(-c2ccc(Cl)cc2)nc(C(=O)O)c1Cl [Compound 65, 6-amino-5-chloro-2-(4-chlorophenyl)-4-pyrimidinecarboxylic acid]
Plant response rating (scale of 0 to 100), Ryegrass, Italian ([1]; 16 g ai/ha): 10 | Plant response rating (scale of 0 to 100), Ryegrass, Italian ([1]; 31 g ai/ha): 50 | Plant response rating (scale of 0 to 100), Ryegrass, Italian ([1]; 62 g ai/ha): 55 | pest or weed control at 125 g/ha ([1]; Lolium multiflorum, post-emergence, 125 g ai/ha, scale 0 to 100 (0 no effect, 100 complete control), read-out: Ryegrass, Italian plant response rating): 60% | Plant response rating (scale of 0 to 100), Windgrass ([2]; 16 g ai/ha): 50 | Plant response rating (scale of 0 to 100), Windgrass ([2]; 31 g ai/ha): 60 | Plant response rating (scale of 0 to 100), Windgrass ([2]; 62 g ai/ha): 70 | pest or weed control at 125 g/ha ([2]; Apera spica-venti, post-emergence, 125 g ai/ha, scale 0 to 100 (0 no effect, 100 complete control), read-out: Windgrass plant response rating): 70% | Plant response rating (scale of 0 to 100), Bromegrass, Downy ([3]; 16 g ai/ha): 40 | Plant response rating (scale of 0 to 100), Bromegrass, Downy ([3]; 31 g ai/ha): 50 | Plant response rating (scale of 0 to 100), Bromegrass, Downy ([3]; 62 g ai/ha): 50 | pest or weed control at 125 g/ha ([3]; Bromus tectorum, post-emergence, 125 g ai/ha, scale 0 to 100 (0 no effect, 100 complete control), read-out: Bromegrass, Downy plant response rating): 55% | Plant response rating (scale of 0 to 100), Barley ([4]; 16 g ai/ha): 40 | Plant response rating (scale of 0 to 100), Barley ([4]; 31 g ai/ha): 40 | plant injury at 62 g/ha ([4]; Hordeum vulgare, post-emergence, 62 g ai/ha, scale 0 to 100 (0 no effect, 100 complete control), read-out: Barley plant response rating): 50% | plant injury at 125 g/ha ([4]; Hordeum vulgare, post-emergence, 125 g ai/ha, scale 0 to 100 (0 no effect, 100 complete control), read-out: Barley plant response rating): 50% | Plant response rating (scale of 0 to 100), Wheat ([5]; 16 g ai/ha): 40 | Plant response rating (scale of 0 to 100), Wheat ([5]; 31 g ai/ha): 40 | Plant response rating (scale of 0 to 100), Wheat ([5]; 62 g ai/ha): 45 | plant injury at 125 g/ha ([5]; Triticum aestivum, post-emergence, 125 g ai/ha, scale 0 to 100 (0 no effect, 100 complete control), read-out: Wheat plant response rating): 45% | Plant response rating (scale of 0 to 100), Oat, Wild (wild oat (Avena fatua); 16 g ai/ha): 5 | Plant response rating (scale of 0 to 100), Oat, Wild (wild oat (Avena fatua); 31 g ai/ha): 15 | Plant response rating (scale of 0 to 100), Oat, Wild (wild oat (Avena fatua); 62 g ai/ha): 20 | pest or weed control at 125 g/ha (wild oat (Avena fatua); Avena fatua, post-emergence, 125 g ai/ha, scale 0 to 100 (0 no effect, 100 complete control), read-out: Oat, Wild plant response rating): 40% | Plant response rating (scale of 0 to 100), Foxtail, Green ([6]; 16 g ai/ha): 50 | Plant response rating (scale of 0 to 100), Foxtail, Green ([6]; 31 g ai/ha): 55 | Plant response rating (scale of 0 to 100), Foxtail, Green ([6]; 62 g ai/ha): 60 | pest or weed control at 125 g/ha ([6]; Setaria viridis, post-emergence, 125 g ai/ha, scale 0 to 100 (0 no effect, 100 complete control), read-out: Foxtail, Green plant response rating): 70% | Plant response rating (scale of 0 to 100), Canarygrass ([7]; 16 g ai/ha): 30 | Plant response rating (scale of 0 to 100), Canarygrass ([7]; 31 g ai/ha): 30 | Plant response rating (scale of 0 to 100), Canarygrass ([7]; 62 g ai/ha): 35 | pest or weed control at 125 g/ha ([7]; Phalaris minor, post-emergence, 125 g ai/ha, scale 0 to 100 (0 no effect, 100 complete control), read-out: Canarygrass plant response rating): 45% | Plant response rating (scale of 0 to 100), Blackgrass ([8]; 16 g ai/ha): 50 | Plant response rating (scale of 0 to 100), Blackgrass ([8]; 31 g ai/ha): 60 | Plant response rating (scale of 0 to 100), Blackgrass ([8]; 62 g ai/ha): 65 | pest or weed control at 125 g/ha ([8]; Alopecurus myosuroides, post-emergence, 125 g ai/ha, scale 0 to 100 (0 no effect, 100 complete control), read-out: Blackgrass plant response rating): 65% | melting point: 158 to 160 °C | Flatsedge, Rice plant response rating ([9]; 32 g ai/ha): 80 | Flatsedge, Rice plant response rating ([9]; 64 g ai/ha): 100 | Flatsedge, Rice plant response rating ([9]; 125 g ai/ha): 100 | Flatsedge, Rice plant response rating ([9]; 250 g ai/ha): 100 | Plant response rating, Flatsedge, Rice ([9]; 16 g ai/ha): 0 | Redstem plant response rating ([10]; 32 g ai/ha): 30 | Redstem plant response rating ([10]; 64 g ai/ha): 30 | Redstem plant response rating ([10]; 125 g ai/ha): 50 | Redstem plant response rating ([10]; 250 g ai/ha): 60 | Plant response rating, Redstem ([10]; 16 g ai/ha): 0

CCOC(=O)c1nc(C2CC2)nc(N)c1Br [Compound 1, ethyl 6-amino-5-bromo-2-cyclopropyl-4-pyrimidinecarboxylate]
Plant response rating, Ducksalad ([11]; 62 g ai/ha): 0 | Plant response rating, Ducksalad ([11]; 250 g ai/ha): 0 | Plant response rating, Ducksalad ([11]; 500 g ai/ha): 0 | Plant response rating, Rice (rice (Oryza sativa); 62 g ai/ha): 0 | Plant response rating, Rice (rice (Oryza sativa); 125 g ai/ha): 0 | Plant response rating, Rice (rice (Oryza sativa); 250 g ai/ha): 0 | Plant response rating, Rice (rice (Oryza sativa); 500 g ai/ha): 0 | Plant response rating, Sedge, Umbrella ([12]; 62 g ai/ha): 0 | Plant response rating, Sedge, Umbrella ([12]; 250 g ai/ha): 0 | Plant response rating, Sedge, Umbrella ([12]; 500 g ai/ha): 0 | Plant response rating, Barnyardgrass ([13]; 62 g ai/ha, scale 0 to 100): 0 | Plant response rating, Barnyardgrass ([13]; 125 g ai/ha, scale 0 to 100): 0 | Plant response rating, Barnyardgrass ([13]; 250 g ai/ha, scale 0 to 100): 15 | Plant response rating, Barnyardgrass [13, 14]: 25 | melting point: 107 to 108 °C

Nc1nc(C2CC2)nc(C(=O)OCc2ccccc2)c1Br [Compound 22, phenylmethyl 6-amino-5-bromo-2-cyclopropyl-4-pyrimidinecarboxylate]
Plant response rating, Ducksalad ([11]; 62 g ai/ha): 30 | Plant response rating, Ducksalad ([11]; 125 g ai/ha): 60 | Plant response rating, Ducksalad ([11]; 250 g ai/ha): 90 | Plant response rating, Ducksalad ([11]; 500 g ai/ha): 95 | Plant response rating, Rice (rice (Oryza sativa); 62 g ai/ha): 20 | Plant response rating, Rice (rice (Oryza sativa); 125 g ai/ha): 20 | Plant response rating, Rice (rice (Oryza sativa); 250 g ai/ha): 40 | Plant response rating, Rice (rice (Oryza sativa); 500 g ai/ha): 60 | Plant response rating, Sedge, Umbrella ([12]; 62 g ai/ha): 0 | Plant response rating, Sedge, Umbrella ([12]; 125 g ai/ha): 30 | Plant response rating, Sedge, Umbrella ([12]; 250 g ai/ha): 75 | Plant response rating, Sedge, Umbrella ([12]; 500 g ai/ha): 95 | Plant response rating, Barnyardgrass ([13]; 62 g ai/ha, scale 0 to 100): 0 | Plant response rating, Barnyardgrass ([13]; 125 g ai/ha, scale 0 to 100): 0 | Plant response rating, Barnyardgrass ([13]; 250 g ai/ha, scale 0 to 100): 40 | Plant response rating, Barnyardgrass [13, 14]: 70 | melting point: 129 to 131 °C
